Data taken from patent US7329657B2, “Indazolyl-substituted pyrroline compounds as kinase inhibitors” (Ortho-McNeil Pharmaceutical, Inc., priority 2000, dated 2008).

Experiments:
Type in all cases: biochemical
[1] = biological target: PKC α (Homo sapiens, UniProt P17252); experiment: Protein Kinase C Histone-Based Assay, α isoform; conditions: histone III substrate, 30 μM ATP, 10 min at 30° C.; read-out: PKC Activity (IC50 μM, Histone Based Assay) Alpha
Description: (§1) Compounds were evaluated for PKC selectivity using histone III as the substrate. […] The reaction was incubated for 10 min at 30° C. Reactions were terminated by TCA precipitation and spotting on Whatman P81 filters. Filters were washed in 75 mM phosphoric acid and the radioactivity quantified by liquid scintillation counting.

[2] = biological target: PKC β-II (Homo sapiens, UniProt P05771); experiment: Protein Kinase C Histone-Based Assay, β-II isoform; conditions: histone III substrate, 30 μM ATP, 10 min at 30° C.; read-out: PKC Activity (IC50 μM, Histone Based Assay) Beta II
Chain of PKC β-II (P05771 1-673 isoform P05771-2): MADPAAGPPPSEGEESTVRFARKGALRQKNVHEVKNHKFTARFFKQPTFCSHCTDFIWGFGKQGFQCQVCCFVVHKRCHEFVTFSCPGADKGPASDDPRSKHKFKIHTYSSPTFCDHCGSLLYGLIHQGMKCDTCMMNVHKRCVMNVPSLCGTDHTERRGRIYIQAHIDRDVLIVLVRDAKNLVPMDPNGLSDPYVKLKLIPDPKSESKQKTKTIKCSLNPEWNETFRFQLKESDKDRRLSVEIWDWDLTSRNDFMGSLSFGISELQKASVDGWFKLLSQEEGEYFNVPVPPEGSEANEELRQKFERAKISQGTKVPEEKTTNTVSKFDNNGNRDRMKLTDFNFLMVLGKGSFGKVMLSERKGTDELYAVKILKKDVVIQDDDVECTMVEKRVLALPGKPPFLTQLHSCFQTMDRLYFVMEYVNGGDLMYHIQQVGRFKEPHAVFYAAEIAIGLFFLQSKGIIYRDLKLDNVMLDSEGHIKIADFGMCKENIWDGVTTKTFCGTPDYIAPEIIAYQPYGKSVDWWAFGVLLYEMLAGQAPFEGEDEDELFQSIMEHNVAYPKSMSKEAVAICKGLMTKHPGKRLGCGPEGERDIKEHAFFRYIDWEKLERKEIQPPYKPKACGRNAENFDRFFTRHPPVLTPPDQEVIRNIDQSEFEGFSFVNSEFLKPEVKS
Description: as §1

[3] = biological target: PKC γ (Homo sapiens, UniProt P05129); experiment: Protein Kinase C Histone-Based Assay, γ isoform; conditions: histone III substrate, 30 μM ATP, 10 min at 30° C.; read-out: PKC Activity (IC50 μM, Histone Based Assay) Gamma
Description: as §1

Row | IC50 [1] [µM] | IC50 [2] [µM] | IC50 [3] [µM] | Structure (SMILES)
1 | 0.189 | 0.02 | 0.161 | CN(C)CCn1nc(C2=C(c3cn(-c4csc5ccccc45)c4ccccc34)C(=O)NC2=O)c2ccccc21 [Compound 103, 3-(1-benzo[b]thien-3-yl-1H-indol-3-yl)-4-[1-[2-(dimethylamino)ethyl]-1H-indazol-3-yl]-1H-pyrrole-2,5-dione]
2 | 0.011 | 0.004 | 0.047 | CN(C)CCCn1nc(C2=C(c3cn(-c4cnc5ccccc5c4)c4ccccc34)C(=O)NC2=O)c2ccccc21 [Compound 19, 3-[1-[3-(dimethylamino)propyl]-1H-indazol-3-yl]-4-[1-(3-quinolinyl)-1H-indol-3-yl]-1H-pyrrole-2,5-dione]
3 | 0.2 | 0.029 | 1.29 | O=C1NC(=O)C(c2nn(CCC3OCCO3)c3ccccc23)=C1c1cn(-c2cnc3ccccc3c2)c2ccccc12 [Compound 24, 3-[1-[2-(1,3-dioxolan-2-yl)ethyl]-1H-indazol-3-yl]-4-[1-(3-quinolinyl)-1H-indol-3-yl]-1H-pyrrole-2,5-dione]
4 | 0.101 | 0.013 | 0.215 | CN(C)CCCn1nc(C2=C(c3cn(-c4ccc5cc(O)ccc5c4)c4ccccc34)C(=O)NC2=O)c2ccccc21 [Compound 64, 3-[1-[3-(dimethylamino)propyl]-1H-indazol-3-yl]-4-[1-(6-hydroxy-2-naphthalenyl)-1H-indol-3-yl]-1H-pyrrole-2,5-dione]
5 | 0.477 | 0.044 | 0.511 | O=C1NC(=O)C(c2nn(CCCN3CCCC3)c3ccccc23)=C1c1cn(-c2ccc3ccccc3c2)c2ccccc12 [Compound 85, 3-[1-(2-naphthalenyl)-1H-indol-3-yl]-4-[1-[3-(1-pyrrolidinyl)propyl]-1H-indazol-3-yl]-1H-pyrrole-2,5-dione]
6 | 0.205 | 0.009 | 0.665 | CN(C)CCCn1nc(C2=C(c3cn(-c4cncnc4)c4ccccc34)C(=O)NC2=O)c2ccccc21 [Compound 34, 3-[1-[3-(dimethylamino)propyl]-1H-indazol-3-yl]-4-[1-(5-pyrimidinyl)-1H-indol-3-yl]-1H-pyrrole-2,5-dione]
7 | 0.032 | 0.005 | 0.231 | NCCCn1nc(C2=C(c3cn(-c4cccnc4)c4ccccc34)C(=O)NC2=O)c2ccccc21 [Compound 109, 3-[1-(3-aminopropyl)-1H-indazol-3-yl]-4-[1-(3-pyridinyl)-1H-indol-3-yl]-1H-pyrrole-2,5-dione]
8 | 0.057 | 0.005 | 0.115 | CN(C)CCCn1nc(C2=C(c3cn(-c4ccc5ccccc5c4)c4ccccc34)C(=O)NC2=O)c2ccccc21 [Compound 14, 3-[1-[3-(dimethylamino)propyl]-1H-indazol-3-yl]-4-[1-(2-naphthalenyl)-1H-indol-3-yl]-1H-pyrrole-2,5-dione]
9 | 0.011 | 0.004 | 0.045 | CN(C)CCCn1nc(C2=C(c3cn(-c4cccnc4)c4ccc(Cl)cc34)C(=O)NC2=O)c2ccccc21 [Compound 13, 3-[5-chloro-1-(3-pyridinyl)-1H-indol-3-yl]-4-[1-[3-(dimethylamino)propyl]-1H-indazol-3-yl]-1H-pyrrole-2,5-dione]
10 | 0.259 | 0.018 | 0.342 | O=C1NC(=O)C(c2nn(CCCN3CCOCC3)c3ccccc23)=C1c1cn(-c2ccc3ccccc3c2)c2ccccc12 [Compound 70, 3-[1-[3-(4-morpholinyl)propyl]-1H-indazol-3-yl]-4-[1-(2-naphthalenyl)-1H-indol-3-yl]-1H-pyrrole-2,5-dione]
11 | 0.141 | 0.008 | 0.262 | CN(C)CCCn1nc(C2=C(c3cn(-c4cccs4)c4ccccc34)C(=O)NC2=O)c2ccccc21 [Compound 9, 3-[1-[3-(dimethylamino)propyl]-1H-indazol-3-yl]-4-[1-(2-thienyl)-1H-indol-3-yl]-1H-pyrrole-2,5-dione]
12 | 0.106 | 0.015 | 0.091 | CN(C)CCCn1nc(C2=C(c3cn(-c4ccccn4)c4ccccc34)C(=O)NC2=O)c2ccccc21 [Compound 31, 3-[1-[3-(dimethylamino)propyl]-1H-indazol-3-yl]-4-[1-(2-pyridinyl)-1H-indol-3-yl]-1H-pyrrole-2,5-dione]
13 | 0.611 | 0.037 | 0.713 | CN(C)CCCn1nc(C2=C(c3cn(-c4csc5ccccc45)c4ccccc34)C(=O)NC2=O)c2ccccc21 [Compound 60, 3-(1-benzo[b]thien-3-yl-1H-indol-3-yl)-4-[1-[3-(dimethylamino)propyl]-1H-indazol-3-yl]-1H-pyrrole-2,5-dione]
14 | 0.124 | 0.007 | 0.213 | CN(C)CCCn1nc(C2=C(c3cn(-c4cccnc4)c4ccccc34)C(=O)NC2=O)c2ccccc21 [Compound 12, 3-[1-[3-(dimethylamino)propyl]-1H-indazol-3-yl]-4-[1-(3-pyridinyl)-1H-indol-3-yl]-H-pyrrole-2,5-dione]
15 | 0.339 | 0.005 | – | CN(C)CCCn1nc(C2=C(c3cn(-c4cccnc4)c4ccccc34)C(=O)NC2)c2ccccc21 [Compound 125, 4-[1-[3-(dimethylamino)propyl]-1H-indazol-3-yl]-1,5-dihydro-3-[1-(3-pyridinyl)-1H-indol-3-yl]-2H-pyrrol-2-one]
16 | 0.043 | 0.006 | 0.09 | O=C1NC(=O)C(c2nn(CCCN3CCOCC3)c3ccccc23)=C1c1cn(-c2cnc3ccccc3c2)c2ccccc12 [Compound 22, 3-[1-[3-(4-morpholinyl)propyl]-1H-indazol-3-yl]-4-[1-(3-quinolinyl)-1H-indol-3-yl]-1H-pyrrole-2,5-dione]
17 | 0.08 | 0.019 | 0.134 | CN(C)CCn1nc(C2=C(c3cn(-c4ccc5ccccc5c4)c4ccccc34)C(=O)NC2=O)c2ccccc21 [Compound 101, 3-[1-[2-(dimethylamino)ethyl]-1H-indazol-3-yl]-4-[1-(2-naphthalenyl)-1H-indol-3-yl]-1H-pyrrole-2,5-dione]
18 | – | 0.026 | – | CN(C)CCn1nc2ccccc2c1C1=C(c2cn(-c3csc4ccccc34)c3ccccc23)C(=O)NC1=O [Compound 123, 3-(1-benzo[b]thien-3-yl-1H-indol-3-yl)-4-[2-[2-(dimethylamino)ethyl]-2H-indazol-3-yl]-1H-pyrrole-2,5-dione]
19 | 1.23 | 0.029 | 3.35 | CN(C)CCCn1nc(C2=C(c3cn(-c4cccc5ccccc45)c4ccccc34)C(=O)NC2=O)c2ccccc21 [Compound 15, 3-[1-[3-(dimethylamino)propyl]-1H-indazol-3-yl]-4-[1-(1-naphthalenyl)-1H-indol-3-yl]-1H-pyrrole-2,5-dione]
20 | 0.071 | 0.01 | 0.168 | CN(C)CCCn1nc(C2=C(c3cn(-c4ccccc4)c4ccccc34)C(=O)NC2=O)c2ccccc21 [Compound 45, 3-[1-[3-(dimethylamino)propyl]-1H-indazol-3-yl]-4-(1-phenyl-1H-indol-3-yl)-1H-pyrrole-2,5-dione]
21 | 0.546 | 0.054 | 0.188 | O=CCCn1nc(C2=C(c3cn(-c4cnc5ccccc5c4)c4ccccc34)C(=O)NC2=O)c2ccccc21 [Compound 23, 3-[2,5-dihydro-2,5-dioxo-4-[1-(3-quinolinyl)-1H-indol-3-yl]-1H-pyrrol-3-yl]-1H-indazole-1-propionaldehyde]
22 | 0.422 | 0.038 | 0.232 | CN(CCO)CCCn1nc(C2=C(c3cn(-c4ccc5ccccc5c4)c4ccccc34)C(=O)NC2=O)c2ccccc21 [Compound 88, 3-[1-[3-[(2-hydroxyethyl)methylamino]propyl]-1H-indazol-3-yl]-4-[1-(2-naphthalenyl)-1H-indol-3-yl]-1H-pyrrole-2,5-dione]
23 | 0.358 | 0.057 | 0.206 | O=C1NC(=O)C(c2nn(CCCO)c3ccccc23)=C1c1cn(-c2ccc3ccccc3c2)c2ccccc12 [Compound 84, 3-[1-(3-hydroxypropyl)-1H-indazol-3-yl]-4-[1-(2-naphthalenyl)-1H-indol-3-yl]-1H-pyrrole-2,5-dione]
24 | 1.48 | 0.016 | 0.65 | CN(C)CCCn1nc(C2=C(c3cn(Cc4ccc5ccccc5n4)c4ccccc34)C(=O)NC2=O)c2ccccc21 [Compound 67, 3-[1-[3-(dimethylamino)propyl]-1H-indazol-3-yl]-4-[1-(2-quinolinylmethyl)-1H-indol-3-yl]-1H-pyrrole-2,5-dione]
25 | 0.29 | 0.015 | 0.253 | CN(C)CCCn1nc(C2=C(c3cn(-c4cncc5ccccc45)c4ccccc34)C(=O)NC2=O)c2ccccc21 [Compound 16, 3-[1-[3-(dimethylamino)propyl]-1H-indazol-3-yl]-4-[1-(4-isoquinolinyl)-1H-indol-3-yl]-1H-pyrrole-2,5-dione]
